Experimental data: US11377425B1, “Small molecule modulators of IL-17” (LEO Pharma A/S, priority 2018, dated 2022)

The compounds below were run against T1, human IL-17AA (Homo sapiens, UniProt Q16552) (assay: IL-8 release assay in human epithelial keratinocytes adult (HEKa)). Details: HEKa cells, 3 ng/mL HEK-human IL-17AA + 10 ng/mL human TNFalpha; read-out: Rel EC50 IL-8 release assay.
T1 construct: host or cells: HEK (human embryonic kidney) cells
T1 sequence (Q16552 24-155): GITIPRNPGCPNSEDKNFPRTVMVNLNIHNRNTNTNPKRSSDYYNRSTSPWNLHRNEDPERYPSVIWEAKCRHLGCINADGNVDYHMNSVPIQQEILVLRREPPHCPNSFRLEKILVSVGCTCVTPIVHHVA
Format: cell-based
Summary of the method: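 IL-8 release, quantified by HTRF and normalized to controls, reports IL-17 signaling in HEKa cells treated with compound plus final 3 ng/mL IL-17AA (HEK-derived) and 10 ng/mL TNF-alpha for 68-72 h; TNF-alpha-only wells set 100% inhibition. Four-parameter logistic fits (r^2>0.9) give relative IC50 and Emax; PrestoBlue flags cytotoxicity.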
In the case of `Cc1n[nH]c(C)c1-c1ccc(NC(=O)[C@@H](NC(=O)c2ccnn2C(C)(C)C)C2CCCCC2)cc1` [Example 8, 2-tert-butyl-N-[(1S)-1-cyclohexyl-2-[4-(3,5-dimethyl-1H-pyrazol-4-yl)anilino]-2-oxo-ethyl]pyrazole-3-carboxamide], the EC50 is reported as > 1000 nM. With `Cc1n[nH]c(C)c1-c1ccc(NC(=O)[C@@H](NC(=O)c2ccnn2C(C)C)[C@@H]2CC3(CC3)CCC2(F)F)cc1` [Example 181, N-[(1S)-1-[(7S)-6,6-difluorospiro[2.5]octan-7-yl]-2-[4-(3,5-dimethyl-1H-pyrazol-4-yl)anilino]-2-oxo-ethyl]-2-isopropyl-pyrazole-3-carboxamide] the EC50 was < 100 nM. With `Cc1n[nH]c(C)c1-c1ccc(NC(=O)[C@@H](NC(=O)c2ccnn2C(C)CO)C(C)C(C)(C)C)cc1` (single isomer, unassigned) [Example 178] the EC50 was < 100 nM. In the case of `Cc1n[nH]c(C)c1-c1ccc(NC(=O)[C@@H](NC(=O)N2CCCCC2CCO)C2CCCCC2)cc1` (single isomer, unassigned) [Example 470], the EC50 is reported as > 1000 nM. With `Cc1[nH]nc(C2CC2)c1-c1ccc(NC(=O)[C@@H](NC(=O)c2ccnn2[C@H](C)CO)C(C2CC2)C2CC2)cc1` [Example 390, N-[(1S)-2,2-dicyclopropyl-1-[[4-(3-cyclopropyl-5-methyl-1H-pyrazol-4-yl)phenyl]carbamoyl]ethyl]-2-[(1R)-2-hydroxy-1-methyl-ethyl]pyrazole-3-carboxamide] the EC50 was < 100 nM. In the case of `Cc1n[nH]c(C)c1-c1ccc(NC(=O)[C@@H](NC(=O)c2ccnn2C)[C@H]2CCc3c(F)cc(F)cc32)cc1` [Example 249, N-[(1S)-1-[(1S)-4,6-difluoroindan-1-yl]-2-[4-(3,5-dimethyl-1H-pyrazol-4-yl)anilino]-2-oxo-ethyl]-2-methyl-pyrazole-3-carboxamide], the EC50 is reported as < 100 nM. In the case of `Cc1n[nH]c(C)c1-c1ccc(NC(=O)[C@@H](NC(=O)c2cnnn2C(C)C)C(C2CC2)C2CC2)cc1` [Example 292, N-[(1S)-1-(dicyclopropylmethyl)-2-[4-(3,5-dimethyl-1H-pyrazol-4-yl)anilino]-2-oxo-ethyl]-3-isopropyl-triazole-4-carboxamide], the EC50 is reported as < 100 nM. `Cc1n[nH]c(C)c1-c1ccc(NC(=O)C(NC(=O)c2ccnn2C(C)C)C2CCCC2C)cc1` (centres unmarked) [Example 251, N-[2-[4-(3,5-dimethyl-1H-pyrazol-4-yl)anilino]-1-(2-methylcyclopentyl)-2-oxo-ethyl]-2-isopropyl-pyrazole-3-carboxamide] was tested, and the EC50 was < 100 nM. An EC50 of 100 to 1000 nM was found for `Cn1cncc1-c1ccc(NC(=O)[C@@H](NC(=O)c2ccnn2C)[C@H]2CCc3ccc(Br)cc32)cc1` [Example 341, N-[(1S)-1-[(1S)-6-bromoindan-1-yl]-2-[4-(3-methylimidazol-4-yl)anilino]-2-oxo-ethyl]-2-methyl-pyrazole-3-carboxamide] in this work. An EC50 of 100 to 1000 nM was found for `Cc1n[nH]c(C)c1-c1ccc(NC(=O)[C@H](CC2CCCCC2)NC(=O)c2ccnn2C)cc1` [Example 15, N-[(1S)-1-(cyclohexylmethyl)-2-[4-(3,5-dimethyl-1H-pyrazol-4-yl)anilino]-2-oxo-ethyl] 2-methyl-pyrazole-3-carboxamide] in this work. `Cc1cnn(C)c1-c1ccc(NC(=O)[C@@H](NC(=O)c2ccnn2C(C)C)C(C2CC2)C2CC2)cc1` [Example 367, N-[(1S)-1-(dicyclopropylmethyl)-2-[4-(2,4-dimethylpyrazol-3-yl)anilino]-2-oxo-ethyl]-2-isopropyl-pyrazole-3-carboxamide] was tested, and the EC50 was < 100 nM. For `Cc1n[nH]c(C)c1-c1ccc(NC(=O)[C@@H](NC(=O)c2ccn(C)n2)C(C2CC2)C2CC2)cc1` [Example 198, N-[(1S)-1-(dicyclopropylmethyl)-2-[4-(3,5-dimethyl-1H-pyrazol-4-yl)anilino]-2-oxo-ethyl]-1-methyl-pyrazole-3-carboxamide], the EC50 was > 1000 nM. With `CC(C)[C@H](NC(=O)OC(C)(C)C)C(=O)Nc1ccc(-c2cncn2C)cc1` [Example 91, tert-butyl N-[(1S)-2-methyl-1-[[4-(3-methylimidazol-4-yl)phenyl]carbamoyl]propyl] carbamate] the EC50 was > 1000 nM. In the case of `Cc1n[nH]c(C(C)O)c1-c1ccc(NC(=O)[C@@H](NC(=O)OC(C)(C)C)C2CCCCC2)cc1` (stereo partly drawn) [Example 433, Tert-butyl N-[(1S)-1-cyclohexyl-2-[4-[5-(1-hydroxyethyl)-3-methyl-1H-pyrazol-4-yl]anilino]-2-oxo-ethyl]carbamate], the EC50 is reported as > 1000 nM. With `Cc1n[nH]c(C)c1-c1ccc(NC(=O)[C@@H](NC(=O)c2ccnn2C(C)C#N)C(C2CC2)C2CC2)cc1` (stereo partly drawn) [Example 171, 2-(1-cyanoethyl)-N-[(1S)-1-(dicyclopropylmethyl)-2-[4-(3,5-dimethyl-1H-pyrazol-4-yl)anilino]-2-oxo-ethyl]pyrazole-3-carboxamide] the EC50 was > 1000 nM. With `CCn1nccc1C(=O)N[C@H](C(=O)Nc1ccc(-c2c(C)n[nH]c2C)cc1)C(C1CC1)C1CC1` [Example 107, N-[(1S)-1-(dicyclopropylmethyl)-2-[4-(3,5-dimethyl-1H-pyrazol-4-yl)anilino]-2-oxo-ethyl]-2-ethyl-pyrazole-3-carboxamide] the EC50 was < 100 nM. An EC50 of 100 to 1000 nM was found for `Cc1n[nH]c(C)c1-c1ccc(NC(=O)[C@@H](NC(=O)N2CCCCC2CCCO)C2CCCCC2)cc1` (single isomer, unassigned) [Example 460] in this work. An EC50 of 100 to 1000 nM was found for `Cc1n[nH]c(C)c1-c1ccc(NC(=O)[C@@H](NC(=O)c2ccnn2CCN(C)C)C(C2CC2)C2CC2)cc1` [Example 131, N-[(1S)-1-(dicyclopropylmethyl)-2-[4-(3,5-dimethyl-1H-pyrazol-4-yl)anilino]-2-oxo-ethyl]-2-(2-dimethylaminoethyl) pyrazole-3-carboxamide] in this work. For `Cc1n[nH]c(C)c1-c1ccc(NC(=O)[C@@H](NC(=O)c2ccnn2[C@@H](C)CO)C(C)C2CCC2)cc1` (single isomer, unassigned) [Example 173], the EC50 was < 100 nM. An EC50 of 100 to 1000 nM was found for `Cc1n[nH]c(C)c1-c1ccc(NC(=O)[C@@H](NC(=O)OCc2ccccc2)C2CCCCC2)cc1` [Example 429, benzyl N-[(1S)-1-cyclohexyl-2-[4-(3,5-dimethyl-1H-pyrazol-4-yl)anilino]-2-oxo-ethyl]carbamate] in this work. For `Cc1n[nH]c(C)c1-c1ccc(NC(=O)C(NC(=O)c2ccnn2C)C2CCCCCCC2)cc1` (single isomer, unassigned) [Example 157, N-[1-cyclooctyl-2-[4-(3,5-dimethyl-1H-pyrazol-4-yl)anilino]-2-oxo-ethyl]-2-methyl-pyrazole-3-carboxamide], the EC50 was > 1000 nM. `Cc1n[nH]c(C)c1-c1ccc(NC(=O)[C@@H](NC(=O)c2conc2C(C)C)C(C2CC2)C2CC2)cc1` [Example 291, N-[(1S)-1-(dicyclopropylmethyl)-2-[4-(3,5-dimethyl-1H-pyrazol-4-yl)anilino]-2-oxo-ethyl]-3-isopropyl-isoxazole-4-carboxamide] was tested, and the EC50 was < 100 nM. An EC50 of 100 to 1000 nM was found for `CCn1nncc1C(=O)N[C@H](C(=O)Nc1ccc(-c2c(C)n[nH]c2C)cc1)C(C1CC1)C1CC1` [Example 270, N-[(1S)-1-(dicyclopropylmethyl)-2-[4-(3,5-dimethyl-1H-pyrazol-4-yl)anilino]-2-oxo-ethyl]-3-ethyl-triazole-4-carboxamide] in this work. With `CCCn1nccc1C(=O)N[C@H](C(=O)Nc1ccc(-c2c(CC)n[nH]c2CC)cc1)C(C1CC1)C1CC1` [Example 397, N-[(1S)-1-(dicyclopropylmethyl)-2-[4-(3,5-diethyl-1H-pyrazol-4-yl)anilino]-2-oxo-ethyl]-2-propyl-pyrazole-3-carboxamide] the EC50 was < 100 nM. For `Cc1n[nH]c(C)c1-c1ccc(NC(=O)[C@@H](NC(=O)c2ccnn2[C@@H](C)CO)C(C2CC2)C2CC2)cc1` (single isomer, unassigned) [Example 119], the EC50 was < 100 nM. An EC50 of 100 to 1000 nM was found for `Cc1n[nH]c(C)c1-c1ccc(NC(=O)[C@@H](NC(=O)c2ccnn2C(C)CO)C(C)C(C)(C)C)cc1` (single isomer, unassigned) [Example 176] in this work. With `Cc1n[nH]c(C)c1-c1ccc(NC(=O)C(NC(=O)c2ccnn2CCC(C)O)C2CCCCCCC2)cc1` (single isomer, unassigned) [Example 145, N-[1-cyclooctyl-2-[4-(3,5-dimethyl-1H-pyrazol-4-yl)anilino]-2-oxo-ethyl]-2-(3-hydroxybutyl)pyrazole-3-carboxamide] the EC50 was < 100 nM. With `Cc1n[nH]c(C)c1-c1ccc(NC(=O)[C@@H](NC(=O)c2ccnn2C)C2CC23CCC3)cc1` (single isomer, unassigned) [Example 223] the EC50 was > 1000 nM. An EC50 of 100 to 1000 nM was found for `Cc1n[nH]c(C)c1-c1ccc(NC(=O)[C@@H](NC(=O)OC2CC2)C2CCCCC2)cc1O` [Example 424, cyclopropyl N-[(1S)-1-cyclohexyl-2-[4-(3,5-dimethyl-1H-pyrazol-4-yl)-3-hydroxy-anilino]-2-oxo-ethyl]carbamate] in this work. For `Cc1n[nH]c(C)c1-c1ccc(NC(=O)[C@@H](NC(=O)c2nccn2C)C2CCCCC2)cc1` [Example 275, N-[(1S)-1-cyclohexyl-2-[4-(3,5-dimethyl-1H-pyrazol-4-yl)anilino]-2-oxo-ethyl]-1-methyl-imidazole-2-carboxamide], the EC50 was > 1000 nM. In the case of `Cc1n[nH]c(C)c1-c1ccc(NC(=O)[C@@H](NC(=O)c2ccnn2C(C)CO)[C@H]2CC[C@H](C)CC2)cc1` (single isomer, unassigned) [Example 205], the EC50 is reported as < 100 nM. In the case of `Cc1ncsc1CC(=O)N[C@H](C(=O)Nc1ccc(-c2c(C)n[nH]c2C)cc1)C1CCCCC1` [Example 51, (2S)-2-cyclohexyl-N-[4-(3,5-dimethyl-1H-pyrazol-4-yl)phenyl]-2-[[2-(4-methylthiazol-5-yl)acetyl]amino]acetamide], the EC50 is reported as > 1000 nM.
